These results are taken from patent publication US20120232069A1, “PROCESS FOR PREPARING EFAVIRENZ POLYMORPH” (HETERO RESEARCH FOUNDATION, priority 2008, published 2012).

A short description of the data set: Hygroscopicity: increase of water content on storage at 25° C. under relative humidity of 60%. Format: physicochemical. To be noted: six months. How it is done: Thus, for example, water content of crystalline form H1 produced according to the present invention is increased by 0.2% in six months at the temperature of 25° C. under relative humidity of 60%. Crystalline form H1 obtained according to the present invention typically has the water content of 2.5-8% by weight of the product obtained, more preferably 3-7% by weight, still more preferably 4-6% by weight as determined by Karl fisher method.

As to `O=C1Nc2ccc(Cl)cc2[C@@](C#CC2CC2)(C(F)(F)F)O1` [crystalline form H1 disclosed in WO 2006/018853] [(4S)-6-chloro-4-(cyclopropylethynyl)-1,4-dihydro-4-(trifluoromethyl)-2H-3,1-benzoxazin-2-one], the “increase of water content on storage” value is listed as 2.37%.
With `O=C1Nc2ccc(Cl)cc2[C@@](C#CC2CC2)(C(F)(F)F)O1` [crystalline form H1 produced according to the present invent] [(4S)-6-chloro-4-(cyclopropylethynyl)-1,4-dihydro-4-(trifluoromethyl)-2H-3,1-benzoxazin-2-one] the figure was 0.2%.
